Values quoted from earlier work in US20100124560A1, “MULTI PORTION INTRA-ORAL DOSAGE FORM AND USE THEREOF” (McNEIL AB, priority 2008, published 2010).
Where two headings read alike, the source gives them in different places.

Experiments:
[1] = pKa value lying in interval 8-9.6

Structure (SMILES)	Solubility in water (in water) [g/kg]	also measured
N[C@@H](CS(=O)(=O)O)C(=O)O [Cysteic acid]	–	Solubility in water, g/kg (in water): Very soluble
NCCCC[C@H](N)C(=O)O [Lysine]	–	Solubility in water, g/kg: Very soluble^a)b)
CSCC[C@H](N)C(=O)O [Methionine]	56	–
N[C@@H](CO)C(=O)O [Serine]	–	pKa value (in interval 8-9.6) [1]: 9.05
CC(C)[C@H](N)C(=O)O [Valine]	88.5	–
CC(C)C[C@H](N)C(=O)O [Leucine]	22.0	–
NC(=O)CC[C@H](N)C(=O)O [Glutamine]	42	–
NC(=O)C[C@H](N)C(=O)O [Aspargine]	–	pKa value (in interval 8-9.6) [1]: 8.73
N[C@@H](Cc1ccccc1)C(=O)O [Phenylalanine]	27.9	–
CC[C@H](C)[C@H](N)C(=O)O [Isoleucine]	34.2	–
N[C@@H](Cc1c[nH]cn1)C(=O)O [Histidine]	43.5	–
